{"source": "paper PMC10700596", "about": "(Nature Communications, 2023)", "key": {"[1]": {"target": "EPHA2 (Homo sapiens, UniProt P29317)", "sequence (P29317 24-976)": "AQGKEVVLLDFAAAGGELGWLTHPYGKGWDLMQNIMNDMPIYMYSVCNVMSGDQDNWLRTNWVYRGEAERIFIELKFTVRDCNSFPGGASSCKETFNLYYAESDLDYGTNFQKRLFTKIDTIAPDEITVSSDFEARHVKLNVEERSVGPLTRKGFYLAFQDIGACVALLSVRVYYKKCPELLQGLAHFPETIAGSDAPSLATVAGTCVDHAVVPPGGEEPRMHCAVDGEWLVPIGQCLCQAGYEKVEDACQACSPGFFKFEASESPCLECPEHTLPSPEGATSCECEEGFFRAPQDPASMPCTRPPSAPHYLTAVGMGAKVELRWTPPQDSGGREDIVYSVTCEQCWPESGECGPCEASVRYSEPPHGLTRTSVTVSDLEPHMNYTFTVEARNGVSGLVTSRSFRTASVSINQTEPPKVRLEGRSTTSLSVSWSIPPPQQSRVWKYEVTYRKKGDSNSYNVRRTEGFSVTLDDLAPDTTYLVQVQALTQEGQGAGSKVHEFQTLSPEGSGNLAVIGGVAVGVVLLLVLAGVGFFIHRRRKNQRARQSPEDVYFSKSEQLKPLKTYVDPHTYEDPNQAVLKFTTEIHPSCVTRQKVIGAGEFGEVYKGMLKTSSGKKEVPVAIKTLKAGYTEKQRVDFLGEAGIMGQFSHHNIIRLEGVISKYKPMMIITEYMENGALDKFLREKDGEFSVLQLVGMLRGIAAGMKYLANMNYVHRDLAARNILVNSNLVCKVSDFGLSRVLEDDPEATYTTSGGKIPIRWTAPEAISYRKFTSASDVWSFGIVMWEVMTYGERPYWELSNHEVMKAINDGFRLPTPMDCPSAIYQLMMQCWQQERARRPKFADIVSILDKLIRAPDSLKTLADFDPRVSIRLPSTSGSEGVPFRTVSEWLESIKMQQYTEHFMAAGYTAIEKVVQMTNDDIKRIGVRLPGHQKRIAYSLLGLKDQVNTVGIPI", "assay": "biochemical", "assay_type": "binding", "conditions": "10000 nM; read-out: Percent Control"}, "[2]": {"target": "CSNK1D (Homo sapiens, UniProt P48730)", "sequence (P48730 whole entry)": "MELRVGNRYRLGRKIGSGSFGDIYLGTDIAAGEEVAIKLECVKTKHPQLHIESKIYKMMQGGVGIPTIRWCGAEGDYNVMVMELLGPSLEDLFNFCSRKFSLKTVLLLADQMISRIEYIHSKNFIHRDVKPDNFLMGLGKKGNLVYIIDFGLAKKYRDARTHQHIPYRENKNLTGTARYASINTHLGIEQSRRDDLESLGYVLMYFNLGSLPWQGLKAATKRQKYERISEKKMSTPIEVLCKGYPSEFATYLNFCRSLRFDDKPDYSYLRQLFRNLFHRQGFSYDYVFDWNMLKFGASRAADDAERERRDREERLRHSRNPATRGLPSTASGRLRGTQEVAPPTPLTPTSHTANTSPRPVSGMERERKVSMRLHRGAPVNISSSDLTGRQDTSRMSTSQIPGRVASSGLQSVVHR", "assay": "biochemical", "assay_type": "binding", "conditions": "10000 nM; read-out: Percent Control"}, "[3]": {"target": "T1, PPARγ (Homo sapiens, UniProt P37231)", "T1 construct": "purchased Eurofins item G124", "T1 sequence (P37231 whole entry, species assumed)": "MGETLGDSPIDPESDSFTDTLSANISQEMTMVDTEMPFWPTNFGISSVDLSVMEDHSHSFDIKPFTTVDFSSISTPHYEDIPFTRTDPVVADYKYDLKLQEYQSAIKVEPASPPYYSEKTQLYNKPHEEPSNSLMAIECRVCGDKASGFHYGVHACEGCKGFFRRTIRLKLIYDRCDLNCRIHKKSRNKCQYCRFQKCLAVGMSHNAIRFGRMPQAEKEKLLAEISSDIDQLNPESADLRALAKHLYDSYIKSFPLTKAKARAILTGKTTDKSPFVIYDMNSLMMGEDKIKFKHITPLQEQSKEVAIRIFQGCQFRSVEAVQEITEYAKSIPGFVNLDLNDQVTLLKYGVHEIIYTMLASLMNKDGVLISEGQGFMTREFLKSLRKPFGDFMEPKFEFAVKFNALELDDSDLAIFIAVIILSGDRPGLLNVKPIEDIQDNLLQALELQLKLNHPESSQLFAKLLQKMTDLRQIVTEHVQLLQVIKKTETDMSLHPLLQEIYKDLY", "assay": "PPARγ agonist/antagonist assay (Eurofins item G124)", "assay_type": "biochemical", "description": ". […] This panel includes several adverse drug reaction receptors such as the serotonin receptor 5HT2b, M1 and M2 muscarinic receptors and adrenergic receptors. […]. page 7:\nSupplementary Figure 7: Non-GPCR off-target screening for 74. a)-e) Dose-response curves of 74 at […]\nproliferator-activated receptor gamma (PPARγ, Eurofins item G124). Data in a)-e) and g)-i) represent two technical replicates. Source data are provided as a Source Data file.\n(1 picture or pasted object on this page, not shown here)"}, "[4]": {"target": "AXL (Homo sapiens, UniProt P30530)", "sequence (P30530 26-894)": "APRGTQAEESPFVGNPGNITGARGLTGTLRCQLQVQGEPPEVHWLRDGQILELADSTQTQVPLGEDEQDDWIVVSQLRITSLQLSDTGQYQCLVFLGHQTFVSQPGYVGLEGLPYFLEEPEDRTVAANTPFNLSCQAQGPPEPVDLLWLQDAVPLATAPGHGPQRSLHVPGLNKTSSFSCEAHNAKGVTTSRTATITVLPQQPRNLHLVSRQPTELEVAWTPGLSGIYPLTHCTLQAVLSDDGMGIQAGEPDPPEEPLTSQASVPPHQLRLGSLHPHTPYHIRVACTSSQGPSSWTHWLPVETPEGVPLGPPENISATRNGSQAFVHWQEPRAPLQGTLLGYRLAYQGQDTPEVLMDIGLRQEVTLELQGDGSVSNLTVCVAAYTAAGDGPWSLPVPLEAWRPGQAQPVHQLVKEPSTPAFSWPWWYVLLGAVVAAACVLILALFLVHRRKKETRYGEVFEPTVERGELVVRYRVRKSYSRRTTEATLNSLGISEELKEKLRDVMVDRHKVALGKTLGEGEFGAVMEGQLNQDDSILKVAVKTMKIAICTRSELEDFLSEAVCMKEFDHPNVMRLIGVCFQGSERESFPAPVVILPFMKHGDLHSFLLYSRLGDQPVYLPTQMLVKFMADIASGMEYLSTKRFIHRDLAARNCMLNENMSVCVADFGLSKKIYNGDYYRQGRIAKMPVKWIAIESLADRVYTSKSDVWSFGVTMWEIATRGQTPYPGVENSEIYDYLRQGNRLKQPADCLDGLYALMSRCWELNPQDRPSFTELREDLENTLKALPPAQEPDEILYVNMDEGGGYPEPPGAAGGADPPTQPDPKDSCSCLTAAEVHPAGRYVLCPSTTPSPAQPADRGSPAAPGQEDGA", "assay": "biochemical", "assay_type": "binding", "conditions": "10000 nM; read-out: Percent Control"}, "[5]": {"system": "mice", "assay_type": "in vivo", "conditions": "for CFA-induced allodynia, mechanical threshold (von Frey): individual animals"}, "[6]": {"target": "EP3R (Homo sapiens, UniProt P43115)", "sequence (P43115 whole entry)": "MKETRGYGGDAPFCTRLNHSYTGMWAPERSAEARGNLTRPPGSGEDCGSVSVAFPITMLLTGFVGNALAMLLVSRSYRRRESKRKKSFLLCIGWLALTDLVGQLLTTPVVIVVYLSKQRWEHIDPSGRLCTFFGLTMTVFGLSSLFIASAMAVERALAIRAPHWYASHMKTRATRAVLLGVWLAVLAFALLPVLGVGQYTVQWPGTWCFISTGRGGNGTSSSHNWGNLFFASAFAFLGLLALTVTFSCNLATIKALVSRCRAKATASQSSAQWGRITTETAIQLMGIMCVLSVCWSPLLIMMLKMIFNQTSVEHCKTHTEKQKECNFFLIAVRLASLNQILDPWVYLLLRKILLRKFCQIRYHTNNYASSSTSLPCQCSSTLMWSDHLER", "assay": "Radioligand (3H-PGE2) displacement assay at EP3R", "assay_type": "binding"}, "[7]": {"target": "BMPR2 (Homo sapiens, UniProt Q13873)", "sequence (Q13873 27-1038)": "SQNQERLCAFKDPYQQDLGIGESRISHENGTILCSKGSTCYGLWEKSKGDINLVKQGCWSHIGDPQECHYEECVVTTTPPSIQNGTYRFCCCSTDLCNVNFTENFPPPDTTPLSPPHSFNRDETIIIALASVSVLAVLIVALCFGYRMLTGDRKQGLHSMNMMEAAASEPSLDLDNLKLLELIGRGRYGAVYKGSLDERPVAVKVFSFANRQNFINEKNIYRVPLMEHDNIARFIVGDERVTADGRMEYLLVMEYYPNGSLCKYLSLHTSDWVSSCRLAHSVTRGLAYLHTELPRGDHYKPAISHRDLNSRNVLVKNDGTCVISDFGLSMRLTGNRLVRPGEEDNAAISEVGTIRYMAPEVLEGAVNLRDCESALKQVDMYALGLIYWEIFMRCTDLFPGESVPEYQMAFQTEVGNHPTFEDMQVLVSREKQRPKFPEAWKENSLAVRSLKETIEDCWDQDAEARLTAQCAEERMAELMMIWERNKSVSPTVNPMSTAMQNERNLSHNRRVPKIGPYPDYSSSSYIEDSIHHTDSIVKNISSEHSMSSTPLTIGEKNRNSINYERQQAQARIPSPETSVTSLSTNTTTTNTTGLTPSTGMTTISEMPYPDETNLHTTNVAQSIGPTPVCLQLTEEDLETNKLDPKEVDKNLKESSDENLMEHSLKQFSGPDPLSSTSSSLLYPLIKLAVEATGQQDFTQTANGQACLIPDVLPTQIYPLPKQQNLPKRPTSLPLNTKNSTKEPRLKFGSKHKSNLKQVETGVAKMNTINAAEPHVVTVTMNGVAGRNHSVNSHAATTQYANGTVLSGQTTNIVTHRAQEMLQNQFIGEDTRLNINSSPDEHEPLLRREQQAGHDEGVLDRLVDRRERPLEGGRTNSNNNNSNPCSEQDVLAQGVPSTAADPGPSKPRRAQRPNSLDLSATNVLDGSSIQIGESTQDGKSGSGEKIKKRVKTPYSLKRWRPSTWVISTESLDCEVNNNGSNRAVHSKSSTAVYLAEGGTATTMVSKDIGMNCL", "assay": "biochemical", "assay_type": "binding", "conditions": "for Signal (qPCR): BMPR2", "description": "Supplementary Figure 7: Non-GPCR off-target screening for 74. a)-e) Dose-response curves of 74 at\nproliferator-activated receptor gamma (PPARγ, Eurofins item G124). Data in a)-e) and g)-i) represent two\ntechnical replicates. Source data are provided as a Source Data file."}, "[8]": {"assay": "in vivo", "assay_type": "in vivo, mice", "conditions": "mice"}, "[9]": {"conditions": "male, CD-1, mouse, CSF, ip, 10 mg/kg, IP 10 mg/kg, CSF, mean, read-out: CSF concentrations of cmpd 7827_0016 in mice following IP (10 mg/kg) administration, C"}, "[10]": {"conditions": "male, CD-1, mouse, brain, ip, 10 mg/kg, IP 10 mg/kg, brain, individual animals, read-out: Brain concentration, Final"}, "[11]": {"conditions": "male, CD-1, mouse, brain, ip, 10 mg/kg, IP 10 mg/kg, brain, mean, read-out: Brain concentrations of cmpd 7827_0016 in mice following IP (10 mg/kg) administration, C"}}, "note": "pKd: −log10 of the molar value. Several values for one entry are separate records, joined by “and”; a condition that tells them apart may be missing. Equal entries are not always repeated. Entries after “also recorded” stand apart in the source; their conditions may differ. Where two headings read alike, the source gives them in different places."}
{"smiles": "O=C(O)C1CCC2(CC1)CC(Nc1ncnc3[nH]c4c(F)cccc4c13)C2", "note": "(stereo not drawn) [Compound 74, OC(=O)C1CCC2(CC(C2)NC=3N=CN=C4NC=5C(F)=CC=CC5C34)CC1]", "values": [{"measurement": "remaining activity at 10 µM", "setting": "[1]", "value": 83, "unit": "%"}, {"measurement": "remaining activity at 10 µM", "setting": "[2]", "value": 3.2, "unit": "%"}, {"measurement": "agonist or antagonist activity at PPARγ", "setting": "[3]", "value": "no agonist or antagonist activity"}, {"measurement": "inhibitory activity against PPARγ", "setting": "[3]; 3 µM", "value": "no inhibitory activity"}, {"measurement": "remaining activity at 10 µM", "setting": "[4]", "value": 47, "unit": "%"}, {"measurement": "CFA-induced allodynia, mechanical threshold (von Frey)", "setting": "[5]; 10 mg/kg IP, day 3", "value": "31.5 and 39 and 36.3 and 64.2 and 20.2"}, {"measurement": "CFA-induced allodynia, mechanical threshold (von Frey)", "setting": "[5]; 30 mg/kg IP, day 4", "value": "35.4 and 28.1 and 62 and 31.3 and 22.9"}, {"measurement": "effect on CFA-induced mechanical allodynia", "setting": "[5]; 10 and 30 mg/kg i.p.", "value": "significantly decreased; also recorded: reduced"}, {"measurement": "binding to EP3 receptor", "setting": "[6]", "value": "no binding"}, {"measurement": "remaining activity at 10 µM", "setting": "[7]; 10000 nM, read-out: Percent Control", "value": 0, "unit": "%"}, {"measurement": "pKd", "setting": "[7]; BMPR2, dose-response", "value": 7.52}, {"measurement": "Signal (qPCR)", "setting": "[7]; compound 1e-5 nM", "value": "3.65e-5 and 5.32e-5"}, {"measurement": "Signal (qPCR)", "setting": "[7]; compound 0.0001 nM", "value": "5.46e-5 and 5.63e-5"}, {"measurement": "Signal (qPCR)", "setting": "[7]; compound 0.001 nM", "value": "6.07e-5 and 6.11e-5"}, {"measurement": "Signal (qPCR)", "setting": "[7]; compound 0.169 nM", "value": "4.64e-5 and 4.8e-5"}, {"measurement": "Signal (qPCR)", "setting": "[7]; compound 0.508 nM", "value": "4.94e-5 and 5.14e-5"}, {"measurement": "Signal (qPCR)", "setting": "[7]; compound 1.52 nM", "value": "5.5e-5 and 5.39e-5"}, {"measurement": "Signal (qPCR)", "setting": "[7]; compound 4.57 nM", "value": "5.07e-5 and 5.31e-5"}, {"measurement": "Signal (qPCR)", "setting": "[7]; compound 13.7 nM", "value": "3.76e-5 and 3.48e-5"}, {"measurement": "Signal (qPCR)", "setting": "[7]; compound 41.2 nM", "value": "2.19e-5 and 2.2e-5"}, {"measurement": "Signal (qPCR)", "setting": "[7]; compound 123 nM", "value": "7.98e-6 and 7.65e-6"}, {"measurement": "Signal (qPCR)", "setting": "[7]; compound 370 nM", "value": "1.69e-6 and 1.57e-6"}, {"measurement": "Signal (qPCR)", "setting": "[7]; compound 3330 nM", "value": "4.07e-8 and 4.89e-8"}, {"measurement": "Signal (qPCR)", "setting": "[7]; compound 10000 nM", "value": "1.28e-8 and 1.26e-8"}, {"measurement": "brain and cerebral spinal fluid exposure", "setting": "[8]; 10 mg/kg i.p.", "value": "only marginal brain and cerebral spinal fluid exposure"}, {"measurement": "concentration at 5 min", "setting": "[8]; [9]", "value": 15.7, "unit": "ng/mL"}, {"measurement": "concentration at 15 min", "setting": "[8]; [9]", "value": 70.5, "unit": "ng/mL"}, {"measurement": "concentration at 30 min", "setting": "[8]; [9]", "value": 80.6, "unit": "ng/mL"}, {"measurement": "concentration at 60 min", "setting": "[8]; [9]", "value": 158, "unit": "ng/mL"}, {"measurement": "concentration at 120 min", "setting": "[8]; [9]", "value": 119, "unit": "ng/mL"}, {"measurement": "concentration at 240 min", "setting": "[8]; [9]", "value": 26, "unit": "ng/mL"}, {"measurement": "concentration at 360 min", "setting": "[8]; male, CD-1, mouse, CSF, ip, 10 mg/kg, IP 10 mg/kg, CSF, individual animals, read-out: CSF concentration, Final", "value": 98.6, "unit": "ng/mL"}, {"measurement": "concentration at 360 min", "setting": "[8]; [9]", "value": 80.9, "unit": "ng/mL"}, {"measurement": "concentration at 480 min", "setting": "[8]; male, CD-1, mouse, CSF, ip, 10 mg/kg, IP 10 mg/kg, CSF, 480 min, mean, read-out: CSF concentrations of cmpd 7827_0016 in mice following IP (10 mg/kg) administration, C", "value": 7.31, "unit": "ng/mL"}, {"measurement": "concentration at 1440 min", "setting": "[8]; male, CD-1, mouse, CSF, ip, 10 mg/kg, IP 10 mg/kg, CSF, 1440 min, mean, read-out: CSF concentrations of cmpd 7827_0016 in mice following IP (10 mg/kg) administration, C", "value": 10.8, "unit": "ng/mL"}, {"measurement": "concentration at 5 min", "setting": "[8]; [10]", "value": 58.9, "unit": "ng/g"}, {"measurement": "concentration at 5 min", "setting": "[8]; [11]", "value": 61.1, "unit": "ng/g"}, {"measurement": "concentration at 15 min", "setting": "[8]; [10]", "value": 152, "unit": "ng/g"}, {"measurement": "concentration at 15 min", "setting": "[8]; [11]", "value": 135, "unit": "ng/g"}, {"measurement": "concentration at 30 min", "setting": "[8]; [10]", "value": 150, "unit": "ng/g"}, {"measurement": "concentration at 30 min", "setting": "[8]; [11]", "value": 203, "unit": "ng/g"}, {"measurement": "concentration at 60 min", "setting": "[8]; [10]", "value": 182, "unit": "ng/g"}, {"measurement": "concentration at 60 min", "setting": "[8]; [11]", "value": 160, "unit": "ng/g"}, {"measurement": "concentration at 120 min", "setting": "[8]; [11]", "value": 82.1, "unit": "ng/g"}, {"measurement": "concentration at 240 min", "setting": "[8]; [10]", "value": 21.6, "unit": "ng/g"}, {"measurement": "concentration at 240 min", "setting": "[8]; [11]", "value": 24.7, "unit": "ng/g"}, {"measurement": "concentration at 360 min", "setting": "[8]; [10]", "value": 20.8, "unit": "ng/g"}, {"measurement": "concentration at 360 min", "setting": "[8]; [11]", "value": 24.3, "unit": "ng/g"}]}
